Source: ChEMBL document CHEMBL1130765, “5-Aminomethylquinoxaline-2,3-diones, Part III: Arylamide derivatives as highly potent and selective glycine-site NMDA receptor antagonists” (Bioorg Med Chem Lett, 1998)
pIC50: −log10 of the molar value.

What was measured:
[1] = target: Glutamate receptor ionotropic, AMPA (Rattus norvegicus, UniProt P19490+P19491+P19492+P19493); experiment: In vitro binding assay for the displacement of [3H]AMPA from AMPA receptor; format: protein-complex assay
[2] = target: Glutamate receptor ionotropic, NMDA 1 (Rattus norvegicus, UniProt P35439); experiment: In vitro binding assay for the displacement of [3H]MDL-105519 from the glycine-site of NMDA receptors

Row | pIC50 [1] | pIC50 [2] | Compound
1 | < 5.00 | 5.41 | O=C(Cc1ccc2c(c1)OCO2)NCc1cc(Br)cc2[nH]c(=O)c(=O)[nH]c12
2 | < 5.00 | 7.40 | O=C(Cc1cccc([N+](=O)[O-])c1)NCc1cc(Br)cc2[nH]c(=O)c(=O)[nH]c12
3 | 6.82 | 7.40 | O=C(NCc1cc([N+](=O)[O-])cc2[nH]c(=O)c(=O)[nH]c12)c1ccccc1O
4 | < 5.00 | 8.00 | O=C(Cc1ccccc1)NCc1cc(Br)cc2[nH]c(=O)c(=O)[nH]c12
5 | < 5.00 | 8.15 | O=C(Cc1ccccc1Cl)NCc1cc(Br)cc2[nH]c(=O)c(=O)[nH]c12
6 | 5.17 | 7.40 | O=C(NCc1cc(Br)cc2[nH]c(=O)c(=O)[nH]c12)c1ccco1
7 | ~5.00 | 7.30 | O=C(NCc1cc(Br)cc2[nH]c(=O)c(=O)[nH]c12)C(O)c1ccccc1 (stereo unspecified)
8 | 5.77 | 7.52 | Cc1ccc(C(=O)NCc2cc(Br)cc3[nH]c(=O)c(=O)[nH]c23)s1
9 | 6.52 | 6.77 | Nc1ccccc1C(=O)NCc1cc([N+](=O)[O-])cc2[nH]c(=O)c(=O)[nH]c12
10 | 5.70 | 8.00 | O=C(NCc1cc(Br)cc2[nH]c(=O)c(=O)[nH]c12)c1ccsc1
11 | < 5.00 | 7.52 | COc1cccc(CC(=O)NCc2cc(Br)cc3[nH]c(=O)c(=O)[nH]c23)c1
12 | < 5.00 | 7.30 | COc1ccc(CC(=O)NCc2cc(Br)cc3[nH]c(=O)c(=O)[nH]c23)cc1OC
13 | < 5.00 | 5.40 | O=C(NCc1cc(Br)cc2[nH]c(=O)c(=O)[nH]c12)C(=O)c1ccccc1
14 | < 5.00 | 7.70 | Cn1cccc1C(=O)NCc1cc(Br)cc2[nH]c(=O)c(=O)[nH]c12

The remaining lines, values behind:

Row | Compound | pIC50 [1] | pIC50 [2]
15 | O=C(Cc1ccc([N+](=O)[O-])cc1)NCc1cc(Br)cc2nc(O)c(O)nc12 | < 5.00 | 5.92
16 | O=C(NCc1cc(Br)cc2nc(O)c(O)nc12)c1cc(C(F)(F)F)cc(C(F)(F)F)c1 | < 5.00 | < 5.00
17 | O=C(Cc1ccccc1[N+](=O)[O-])NCc1cc(Br)cc2nc(O)c(O)nc12 | < 5.00 | 7.70
18 | Cc1ncccc1C(=O)NCc1cc(Br)cc2nc(O)c(O)nc12 | ~5.00 | 5.74
19 | Cc1ccc(C(=O)NCc2cc(Br)cc3nc(O)c(O)nc23)cn1 | ~5.00 | 6.96
20 | O=C(NCc1cc([N+](=O)[O-])cc2[nH]c(=O)c(=O)[nH]c12)c1cc(O)c(O)c(O)c1 | 6.89 | 6.82
21 | O=C(NCc1cc(Br)cc2nc(O)c(O)nc12)c1cccs1 | 5.80 | 8.00
22 | O=C(Cc1ccccc1)NCc1cc(Cl)cc2nc(O)c(O)nc12 | ~5.00 | 8.00
23 | COc1cc(C(=O)NCc2cc([N+](=O)[O-])cc3[nH]c(=O)c(=O)[nH]c23)cc(OC)c1OC | 7.19 | 6.70
24 | Cc1ccsc1C(=O)NCc1cc(Br)cc2nc(O)c(O)nc12 | ~5.00 | 7.70
25 | O=C(NCc1cc(Br)cc2nc(O)c(O)nc12)c1ccncc1 | ~5.00 | 6.60
26 | O=C(Cc1ccc(Cl)cc1)NCc1cc(Br)cc2nc(O)c(O)nc12 | < 5.00 | 4.70
27 | O=C(NCc1cc(Br)cc2nc(O)c(O)nc12)c1ccccc1 | 5.77 | 7.22
28 | NS(=O)(=O)c1ccc(C(=O)NCc2cc([N+](=O)[O-])cc3[nH]c(=O)c(=O)[nH]c23)cc1 | 6.70 | 6.20
29 | COc1ccc(NC(=O)NCc2cc([N+](=O)[O-])cc3[nH]c(=O)c(=O)[nH]c23)cc1 | 6.52 | 7.52
30 | O=C(Cc1ccccc1)NCc1cccc2[nH]c(=O)c(=O)[nH]c12 | < 5.00 | 7.05
31 | O=C(NCc1cc(Br)cc2nc(O)c(O)nc12)c1cccnc1 | 5.37 | 6.55
32 | O=C(CCc1ccccc1)NCc1cc(Br)cc2nc(O)c(O)nc12 | < 5.00 | 6.07
33 | O=C(Cc1ccccc1)NCc1cc([N+](=O)[O-])cc2[nH]c(=O)c(=O)[nH]c12 | 4.54 | 7.40
34 | O=C(NCc1cc([N+](=O)[O-])cc2nc(O)c(O)nc12)Nc1ccccc1 | 5.36 | 6.05
35 | CC(C(=O)NCc1cc(Br)cc2nc(O)c(O)nc12)c1ccccc1 (stereo unspecified) | ~5.00 | 8.00
36 | CC(=O)OC(C(=O)NCc1cc(Br)cc2nc(O)c(O)nc12)c1ccccc1 (stereo unspecified) | < 5.00 | 7.40
37 | COc1ccccc1NC(=O)NCc1cc([N+](=O)[O-])cc2nc(O)c(O)nc12 | 6.20 | 7.52
38 | O=C(NCc1cc(Br)cc2nc(O)c(O)nc12)OCc1ccccc1 | ~5.00 | 6.96
39 | O=C(Cc1ccsc1)NCc1cc(Br)cc2nc(O)c(O)nc12 | 4.95 | 8.00
40 | O=C(NCc1cc([N+](=O)[O-])cc2nc(O)c(O)nc12)Nc1ccc(OC(F)(F)F)cc1 | 5.96 | 6.46
41 | O=C(Cc1ccccc1)NCc1cc(P(=O)(O)O)cc2[nH]c(=O)c(=O)[nH]c12 | < 5.00 | < 5.00
42 | O=C(NCc1cc(Br)cc2[nH]c(=O)c(=O)[nH]c12)Oc1ccccc1 | < 5.00 | 5.82
43 | O=C(Cc1cccc(Cl)c1)NCc1cc(Br)cc2nc(O)c(O)nc12 | < 5.00 | 7.40
